Assay results published in PubChem BioAssay (NCI).
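Briefly, cells in 96-well plates were exposed to five compound concentrations for 48 h, and endpoints were estimated by linear interpolation. The concentration for 50% growth inhibition is given as GI50. At the TGI there is no net growth.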

Tests used:
Assay in all cases: inhibition of tumour cell growth, NCI panel, 48 h
[1] = test system: OVCAR-5 ovarian
[2] = test system: SN12C renal
[3] = test system: M14 melanoma
[4] = test system: COLO 205 colon
[5] = test system: HT29 colon
[6] = test system: OVCAR-3 ovarian
[7] = test system: MDA-MB-231 breast
[8] = test system: MALME-3M melanoma
[9] = test system: SK-MEL-2 melanoma
[10] = test system: SK-OV-3 ovarian
[11] = test system: NCI-H226 lung
[12] = test system: HL-60(TB) leukemia
[13] = test system: CCRF-CEM leukemia
[14] = test system: 786-0 renal
[15] = test system: SF-295 CNS
[16] = test system: U251 CNS
[17] = test system: HOP-62 NSCLC
[18] = test system: HCC-2998 colon
[19] = test system: K-562 leukemia
[20] = test system: KM12 colon
[21] = test system: HCT-116 colon
[22] = test system: TK-10 renal
[23] = test system: A498 renal
[24] = test system: MDA-MB-435
[25] = test system: UACC-62 melanoma
[26] = test system: HS 578T breast
[27] = test system: IGROV1 ovarian
[28] = test system: HCT-15 colon
[29] = test system: LOX IMVI melanoma
[30] = test system: PC-3 prostate
[31] = test system: OVCAR-8 ovarian
[32] = test system: SW-620 colon
[33] = test system: HOP-92 NSCLC
[34] = test system: SNB-19 CNS
[35] = test system: SF-268 CNS
[36] = test system: A549 NSCLC
[37] = test system: MOLT-4 leukemia
[38] = test system: SNB-75 CNS
[39] = test system: NCI-H522 lung
[40] = test system: SF-539 CNS
[41] = test system: CAKI-1 renal
[42] = test system: MCF7 breast
[43] = test system: NCI-H460 lung
[44] = test system: T-47D breast
[45] = test system: UO-31 renal
[46] = test system: SK-MEL-5 melanoma
[47] = test system: NCI-H23 lung
[48] = test system: UACC-257 melanoma
[49] = test system: NCI/ADR-RES ovarian
[50] = test system: EKVX NSCLC
[51] = test system: ACHN renal
[52] = test system: SK-MEL-28 melanoma
[53] = test system: BT-549 breast
[54] = test system: OVCAR-4 ovarian
[55] = test system: DU-145 prostate
[56] = test system: SR leukemia

COc1ccccc1N1CCN(CC(O)COc2c(Br)c(Br)c(Br)c3c2OC(C)(C)C3)CC1 (configuration not stated)
GI50 [1]: 19.4 µM | TGI [1]: > 100 µM | GI50 [2]: 14.6 µM | TGI [2]: 32.9 µM | GI50 [3]: 13.2 µM | TGI [3]: 37.5 µM | GI50 [4]: 12.4 µM | TGI [4]: 30.4 µM | GI50 [5]: 4.1 µM | TGI [5]: 14 µM | GI50 [6]: 14.4 µM | TGI [6]: 34.6 µM | GI50 [7]: 12.9 µM | TGI [7]: 32.1 µM | GI50 [8]: 16.1 µM | TGI [8]: 37.5 µM | GI50 [9]: 5.32 µM | TGI [9]: 20.9 µM | GI50 [10]: 49.4 µM | TGI [10]: > 100 µM | GI50 [11]: 13.2 µM | TGI [11]: 64.5 µM | GI50 [12]: 5.05 µM | TGI [12]: > 100 µM | GI50 [13]: 92.2 µM | TGI [13]: > 100 µM | GI50 [14]: 12.8 µM | TGI [14]: 29.6 µM | GI50 [15]: 4.68 µM | TGI [15]: 17.3 µM | GI50 [16]: 10.6 µM | TGI [16]: 24.2 µM | GI50 [17]: 12.6 µM | TGI [17]: 30.8 µM | GI50 [18]: 4.57 µM | TGI [18]: 16.5 µM | GI50 [19]: 4.7 µM | TGI [19]: > 100 µM | GI50 [20]: 13.7 µM | TGI [20]: 56.1 µM | GI50 [21]: 4.45 µM | TGI [21]: 20.1 µM | GI50 [22]: 15.4 µM | TGI [22]: 46.7 µM | GI50 [23]: 20.4 µM | TGI [23]: 47.9 µM | GI50 [24]: 16.2 µM | TGI [24]: 55.1 µM | GI50 [25]: 12 µM | TGI [25]: 30.6 µM | GI50 [26]: 15 µM | TGI [26]: 42 µM | GI50 [27]: 12.8 µM | TGI [27]: 38.9 µM | GI50 [28]: 4.72 µM | TGI [28]: 24.8 µM | GI50 [29]: 6.38 µM | TGI [29]: 18.9 µM | GI50 [30]: 6.53 µM | TGI [30]: 43.4 µM | GI50 [31]: 31.5 µM | TGI [31]: 94.4 µM | GI50 [32]: 9.6 µM | TGI [32]: 25.7 µM | GI50 [33]: 6.15 µM | TGI [33]: 24.1 µM | GI50 [34]: 17.9 µM | TGI [34]: 47.3 µM | GI50 [35]: 33.3 µM | TGI [35]: > 100 µM | GI50 [36]: 16.6 µM | TGI [36]: 96.5 µM | GI50 [37]: 4.25 µM | TGI [37]: > 100 µM | GI50 [38]: 18.1 µM | TGI [38]: 94.1 µM | GI50 [39]: 12.3 µM | TGI [39]: 27.9 µM | GI50 [40]: 13.9 µM | TGI [40]: 32.1 µM | GI50 [41]: 4.56 µM | TGI [41]: 12.3 µM | GI50 [42]: 25.5 µM | TGI [42]: > 100 µM | GI50 [43]: 8.78 µM | TGI [43]: 54.4 µM | GI50 [44]: 15.8 µM | TGI [44]: > 100 µM | GI50 [45]: 9.66 µM | TGI [45]: 27.2 µM | GI50 [46]: 4.91 µM | TGI [46]: 19.1 µM | GI50 [47]: 9.53 µM | TGI [47]: 38.4 µM | GI50 [48]: 23.4 µM | TGI [48]: > 100 µM | GI50 [49]: 11.2 µM | TGI [49]: > 100 µM | GI50 [50]: 8.85 µM | TGI [50]: > 100 µM | GI50 [51]: 14.2 µM | TGI [51]: > 100 µM | GI50 [52]: 17.3 µM | TGI [52]: 36.8 µM | GI50 [53]: 12.5 µM | TGI [53]: 34.1 µM | GI50 [54]: 8.93 µM | TGI [54]: > 100 µM | GI50 [55]: 16.5 µM | TGI [55]: 37.3 µM | GI50 [56]: 7.83 µM | TGI [56]: > 100 µM
